Test results published in patent publication US8809364B2, “Polycyclic aryl substituted triazoles and polycyclic heteroaryl substituted triazoles useful as axl inhibitors” (priority 2007, dated 2014).

Target: T1, Axl (Homo sapiens, UniProt P30530)
T1 construct: endogenous in cells; host or cells: HeLa cells
T1 sequence (P30530 26-894): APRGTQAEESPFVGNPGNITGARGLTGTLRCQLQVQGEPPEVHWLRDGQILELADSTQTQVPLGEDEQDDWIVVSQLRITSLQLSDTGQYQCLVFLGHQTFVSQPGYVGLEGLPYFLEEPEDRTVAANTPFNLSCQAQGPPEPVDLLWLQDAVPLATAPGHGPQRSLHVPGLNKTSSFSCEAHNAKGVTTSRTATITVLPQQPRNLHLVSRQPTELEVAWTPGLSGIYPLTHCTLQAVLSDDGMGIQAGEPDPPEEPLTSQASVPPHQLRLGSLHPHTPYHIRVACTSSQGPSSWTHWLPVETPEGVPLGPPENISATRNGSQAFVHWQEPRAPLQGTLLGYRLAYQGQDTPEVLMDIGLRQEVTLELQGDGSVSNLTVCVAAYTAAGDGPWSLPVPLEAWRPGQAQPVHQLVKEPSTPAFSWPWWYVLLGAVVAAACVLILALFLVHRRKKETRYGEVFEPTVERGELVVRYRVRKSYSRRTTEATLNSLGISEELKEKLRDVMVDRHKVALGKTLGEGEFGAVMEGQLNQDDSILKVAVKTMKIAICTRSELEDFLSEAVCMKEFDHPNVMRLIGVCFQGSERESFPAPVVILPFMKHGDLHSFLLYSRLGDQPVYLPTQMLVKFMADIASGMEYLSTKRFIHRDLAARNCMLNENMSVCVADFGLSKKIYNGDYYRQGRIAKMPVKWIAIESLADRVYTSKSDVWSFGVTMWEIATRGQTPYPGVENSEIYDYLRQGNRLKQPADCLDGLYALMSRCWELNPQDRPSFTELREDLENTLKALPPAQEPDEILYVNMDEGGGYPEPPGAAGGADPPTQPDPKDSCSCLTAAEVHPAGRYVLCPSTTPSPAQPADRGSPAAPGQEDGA
Experiment: Phospho-Akt In-Cell Western Assay (inhibition of Axl activity)
Type: cell-based
Details: Hela cells, Axl antibody cross-linking stimulation, phospho-Akt chemiluminescence normalized to cell number
Protocol: The compounds of the invention were tested in the following assay for their ability to inhibit Axl activity.
Phospho-Akt In-Cell Western Assay
• Cell culture plate: 96 well assay plate (Corning 3610), white, clear bottom, tissue-culture treated. • Cells: Hela cells. • Starvation medium: For Axl stimulation: 0.5% FCS (fetal calf serum) in DMEM, plus Axl/Fc (extracellular domain of AXL fused to immunoglobulin Fc region) (R&D, 154-AL) 500 ng/mL. • For EGF (epidermal growth factor) stimulation: 0.5% FCS in DMEM (Dulbecco's modified Eagles medium). • Poly-L-Lysine 0.01% solution (the working solution): 10 μg/ml, dilute In PBS (phosphate buffered saline). • Axl antibody cross-linking: • 1st: Mouse anti-Axl (R&D, MAB154). • 2nd: Biotin-SP-conjugated AffiniPure goat anti-mouse IgG (H+L) (Jackson ImmunoResearch #115-065-003). • Fixing buffer: 4% formaldehyde in PBS. • Wash buffer: 0.1% TritonX-100 in PBS. • Quenching buffer: 3% H2O2, 0.1% Azide in wash buffer, Azide and hydrogen peroxide (H2O2) are added fresh. • Blocking buffer: 5% BSA in TBST (tris buffered saline plus 0.1% Tween 20). • Primary antibody: Rabbit anti-human Phospho-Akt antibody (Cell Signaling 9271): 1×250 diluted in blocking buffer. • Secondary antibody: HRP (horse radish peroxidase)-conjugated Goat anti-Rabbit secondary, stock solution: Jackson ImmunoResearch (Goat anti-Rabbit HRP, #111-035-144) 1:1 diluted in glycerol, store at −20° C. The working solution: 1×2000 dilution of stock in blocking buffer. • Chemiluminescent working solution (Pierce, 37030): SuperSignal ELISA (enzyme linked immunosorbant assay) Pico Chemiluminescent substrate. • Crystal Violet solution: Stock: 2.5% Crystal violet in methanol, filtered and kept at ambient temperature. The working solution: dilute the stock 1:20 with PBS immediately before use. • 10% SDS: working solution: 5% SDS (sodium dodecylsulfate), diluted in PBS Methods: Day 1:
A 96 well TC (tissue culture treated) plate was coated with 10 μg/mL poly-L-Lysine at 37° C. for 30 min, washed twice with PBS, and air-dried for 5 minutes before cells were added. Hela cells were seeded at 10,000 cells/well and the cells were starved in 100 μL starvation medium containing Axl/Fc for 24 hrs.
The cells were pre-treated with test compounds by adding 100 μL of 2× test compound to the starvation medium on the cells. The cells were incubated at 37° C. for 1 hr before stimulation.
The cells were stimulated by Axl-antibody cross-linking as follows: A 5×1^St/2nd Axl antibody mixture was made (37.5 μg/mL 1st/100 μg/mL 2nd) in starvation medium and nutated at 4° C. with thorough mixing for 1-2 hours for clustering. The resulting mix was warmed to 37° C. 50 μL of 5×Axl 1st/2nd of antibody cluster was added to the cells and the cells were incubated at 37° C. for 5 min.
After 5 minutes stimulation, the plate was flicked to remove medium and the plate was tapped onto paper towels. Formaldehyde (4.0% in PBS, 100 μL) was added to fix the cells and the cells were incubated at ambient temperature for 20 min without shaking.
The cells were washed with a plate washer buffer to remove the formaldehyde solution. The plate was flicked to removed excess wash buffer and tapped onto paper towels. Quenching buffer (100 μL) was added to each well and the cells were incubated at ambient temperature for 20 minutes without shaking.
The cells were washed with a plate washer buffer to remove the quenching buffer. Blocking buffer (100 μL) was added and the cells were incubated at ambient temperature for at least an hour with gentle shaking.
The cells were washed with a plate washer buffer and diluted primary antibody (50 μL) was added to each well (blocking buffer was added to the negative control wells instead). The plates were incubated overnight at 4° C. with gentle shaking.
The wash buffer was removed, diluted secondary antibody (100 μL) was added, and the cells were incubated at ambient temperature for 1 hour with gentle shaking. […]

[1] = compounds of formula (Ia), Table 1

Row | Compound | IC50 (compound of formula (Ib), Table 2) [nM] | IC50 [1] [nM]
1 | Nc1nc(Nc2ccc3c(c2)C(=O)NCCCC3)n(-c2cc3c(nn2)-c2ccccc2CCC3)n1 [Compound 15, 1-(6,7-dihydro-5H-benzo[6,7]cyclohepta[1,2-c]pyridazin-3-yl)-N^5-(1(2H)-oxo-3,4,5,6-tetrahydrobenzo[c]azocin-9-yl)-1H-1,2,4-triazole-3,5-diamine] | 1000 to 10000 | –
2 | Nc1nc(Nc2cnc3c(c2)CCC(=O)CCC3)nn1-c1cc(-c2ccncc2)c2c(n1)C1CCN2CC1 [Compound 10, 1-(1,4-ethano-8-pyridin-4-yl-1,2,3,4-tetrahydro-1,5-naphthyridin-6-yl)-N^3-(7-oxo-5,6,7,8,9,10-hexahydrocycloocta[b]pyridin-3-yl)-1H-1,2,4-triazole-3,5-diamine] | – | < 1000
3 | Nc1nc(Nc2ccc3c(c2)CC(N2CCCC2)CCCC3)nn1-c1cc2c(nn1)-c1ccccc1CCC2 (centres unmarked) [Compound 5, 1-(6,7-dihydro-5H-benzo[6,7]cyclohepta[1,2-c]pyridazin-3-yl)-N^3-(6-pyrrolidin-1-yl-5,6,7,8,9,10-hexahydrobenzo[8]annulene-3-yl)-1H-1,2,4-triazole-3,5-diamine] | – | 1000 to 10000
4 | Nc1nc(Nc2ccc3c(c2)CCC2(CC3)OCCO2)nn1-c1ncnc2c1CCCCCC2 [Compound 14, 1-(5,6,7,8,9,10-hexahydrocycloocta[d]pyrimidin-4-yl)-N^3-(5,6,8,9-tetrahydrospiro[benzo[7]annulene-7,2′-[1,3]dioxolane]-3-yl)-1H-1,2,4-triazole-3,5-diamine] | – | 1000 to 10000
5 | CON=C1CCCc2ncc(Nc3nc(N)n(-c4cc5c(nn4)-c4ccccc4CCC5)n3)cc2CC1 (racemic) [Compound 8, 1-(6,7-dihydro-5H-benzo[6,7]cyclohepta[1,2-c]pyridazin-3-yl)-N^3-(7-(methoxyimino)-5,6,7,8,9,10-hexahydrocycloocta[b]pyridin-3-yl)-1H-1,2,4-triazole-3,5-diamine] | – | 1000 to 10000
6 | Nc1nc(Nc2ccc3c(c2)CNCCCC3)nn1-c1cc2c(nn1)-c1ccccc1CCC2 [Compound 13, 1-(6,7-dihydro-5H-benzo[6,7]cyclohepta[1,2-c]pyridazin-3-yl)-N^3-(1,2,3,4,5,6-hexahydrobenzo[c]azocin-9-yl)-1H-1,2,4-triazole-3,5-diamine] | – | 1000 to 10000
7 | Nc1nc(Nc2cnc3c(c2)CCC(O)CCC3)nn1-c1cc2c(nn1)-c1ccccc1CCC2 (centres unmarked) [Compound 9, 1-(6,7-dihydro-5H-benzo[6,7]cyclohepta[1,2-c]pyridazin-3-yl)-N^3-(7-hydroxy-5,6,7,8,9,10-hexahydrocycloocta[b]pyridin-3-yl)-1H-1,2,4-triazole-3,5-diamine] | – | 1000 to 10000
8 | Nc1nc(Nc2ccc3c(c2)CCCN(C2CCCC2)CC3)nn1-c1cc2c(nn1)-c1ccccc1CCC2 [Compound 2, 1-(6,7-dihydro-5H-benzo[6,7]cyclohepta[1,2-c]pyridazin-3-yl)-N^3-(3-cyclopentyl-1,2,3,4,5,6-hexahydrobenzo[d]azocin-8-yl)-1H-1,2,4-triazole-3,5-diamine] | – | 1000 to 10000

The next lines start with the values.

Row | IC50 (compound of formula (Ib), Table 2) [nM] | IC50 [1] [nM] | Compound
9 | – | 1000 to 10000 | Nc1nc(Nc2ccc3c(c2)C(=O)NCCCC3)nn1-c1cc2c(nn1)-c1ccccc1CCC2 [Compound 11, 1-(6,7-dihydro-5H-benzo[6,7]cyclohepta[1,2-c]pyridazin-3-yl)-N^3-(1(2H)-oxo-3,4,5,6-tetrahydrobenzo[c]azocin-9-yl)-1H-1,2,4-triazole-3,5-diamine]
10 | – | < 1000 | Nc1nc(Nc2cnc3c(c2)CCC(N2CCCC2)CCC3)nn1-c1cc2c(nn1)-c1ccccc1CCC2 (centres unmarked) [Compound 7, 1-(6,7-dihydro-5H-benzo[6,7]cyclohepta[1,2-c]pyridazin-3-yl)-N^3-(7-(pyrrolidin-1-yl)-5,6,7,8,9,10-hexahydrocycloocta[b]pyridin-3-yl)-1H-1,2,4-triazole-3,5-diamine]
11 | – | < 1000 | Nc1nc(Nc2cnc3c(c2)CCC(=O)CCC3)nn1-c1cc2c(nn1)-c1ccccc1CCC2 [Compound 6, 1-(6,7-dihydro-5H-benzo[6,7]cyclohepta[1,2-c]pyridazin-3-yl)-N^3-(7-oxo-5,6,8,9,10-pentahydrocycloocta[b]pyridin-3-yl)-1H-1,2,4-triazole-3,5-diamine]
12 | – | < 1000 | Nc1nc(Nc2ccc3c(c2)CC2CCC(C3)C2N2CCCC2)nn1-c1cc2c(nn1)-c1ccccc1CCC2 (centres unmarked) [Compound 4, 1-(6,7-dihydro-5H-benzo[6,7]cyclohepta[1,2-c]pyridazin-3-yl)-N^3-(7-pyrrolidin-1-yl-6,8-ethano-6,7,8,9-tetrahydro-5H-benzo[7]annulene-3-yl)-1H-1,2,4-triazole-3,5-diamine]
13 | – | < 1000 | Nc1nc(Nc2ccc3c(c2)CCC(=O)NCC3)nn1-c1cc2c(nn1)-c1ccccc1CCC2 [Compound 1, 1-(6,7-dihydro-5H-benzo[6,7]cyclohepta[1,2-c]pyridazin-3-yl)-N^3-(4(1H)-oxo-2,3,5,6-tetrahydrobenzo[d]azocin-8-yl)-1H-1,2,4-triazole-3,5-diamine]
14 | – | < 1000 | Nc1nc(Nc2ccc3c(c2)CCN(C2CCCC2)CCC3)nn1-c1cc2c(nn1)-c1ccccc1CCC2 [Compound 3, 1-(6,7-dihydro-5H-benzo[6,7]cyclohepta[1,2-c]pyridazin-3-yl)-N^3-(3-cyclopentyl-1,2,3,4,5,6-hexahydrobenzo[d]azocin-9-yl)-1H-1,2,4-triazole-3,5-diamine]
